“Also recorded” adds a separate entry of the source. Like-named read-outs stand apart in the source and are kept apart here.
Tests used:
[1] = system: Cytoplasmic Calcium Ion (Ca^++) Mobilization in platelets; experiment: Cytoplasmic calcium ion mobilization in platelets (Indo-1, flow cytometer); format: cell-based, human; conditions: unstimulated peak 133
Method: (§1) Unless otherwise provided below, the experimental procedures were performed according to the procedures provided in U.S. Pat. No. 5,049.550 (Zamecnik '550), the entire contents of which are incorporated herein by reference. Some alternative procedures (e.g., release reaction, PF3 assays) and a number of additional studies also are provided (e.g., cytoplasmic calcium mobilization, fibrinogen binding site, agonists other than ADP, platelet cAMP and distribution of CHCl-AP4 A into blood components). Blood was collected in a 0.1 volume of 3.8% sodium citrate from healthy human volunteers who had abstained from antiplatelet agents for at least 10 days. Platelet rich plasma (PRP) was separated by a gradual centrifugation and adjusted to 3.3×10^8 platelets per ml plasma. PRP has been utilized in the Examples unless otherwise stated.
An increment of cytoplasmic Ca^++ in the platelets represents an activated state. Indo-1 acetomethyl ester (Indo-1) commonly has been utilized as the reagent to detect intracellular free Ca^++. Indo-1 reacts with Ca^++ and produces fluorescence which can be monitored in a dual wavelength (408/485) flow cytometer (Coulter EPIC Systems). Platelets were incubated with Indo-1 at 37° C. for 45 min. Excess Indo-1 in the medium was removed by gel-filtration method. Indo-1-loaded platelets were then activated by 6.7 μM ADP in the absence or presence of thio-CHCl-AP4 A (3.3 μM) or CHCl-AP4 A (6.7 μM). Fluorescence intensity of the platelets was monitored and plotted against platelet number. The histograms generated from the plots were analyzed. Unstimulated platelets registered fluorescence intensity (FI) between 42 and 250 with a peak at 133 (base line control).

[2] = cited from earlier work
[3] = system: ADP-induced platelet aggregation; conditions: cited from earlier work
[4] = system: ADP-induced platelet aggregation; thrombus formation; conditions: in words; cited from earlier work
[5] = cited from earlier work; remark: listed apart in the source
[6] = system: ADP-induced platelet aggregation; conditions: Zamecnik '550 Table 3; cited from earlier work
[7] = system: ADP-induced platelet aggregation; experiment: ADP-induced platelet aggregation in platelet-rich plasma (turbidimetric method of Born, aggregometer); format: cell-based, human; conditions: ADP-induced aggregation, PRP, mean of three (*) or two determinations
Method: as §1
An initial screening was performed for inhibitory effects of several agents (including, e.g., thio-CHCl-AP4 A and CHCl-AP4 A as reference agent)) on platelet aggregation induced by ADP. Platelet aggregation was measured with platelet-rich plasma (PKP) by the turbidimetric method of Born (J. Physiol. 162:67, 1962) in an aggregometer (Chrono-log, Model 530 VS). Platelet aggregation induced by 5 μM ADP in the absence or presence of 5 μM agents was examined. […] The IC50 value of the CHCl-AP4 A (reference agent) was consistent with the value reported previously (P. Zamecnik et al., Proc. Nat'l. Acad. Sci. USA 89:2370-2373 (1992)).

[8] = system: platelet cAMP level; experiment: Level of intracellular platelet cAMP (etheno-cAMP, HPLC); format: cell-based, human; conditions: forskolin 101 μM as printed, positive control, in words
[9] = system: platelet cAMP level; experiment: as above; format: cell-based, human; conditions: 10 μM agent, 37° C., 5 min; control 31.6
Method: as §1
The inhibitory effect of cAMP on platelet aggregation has been known as a counteraction of calcium ion mobilization. Accordingly, the inhibitory effects of the agents with respect to a cAMP mediated mechanism was tested. PRP was incubated with saline (control), agents (at 20 μM and 100 μM), or forskolin (10 μM) at 37° C. for 5 min. After incubation, extracts were made using Ba(OH)2 and ZnSO4. Cyclic AMP in the extracts was converted into the etheno-cAMP derivative, and the levels were estimated by HPLC using a fluorescence detector (W. Wojcik et al., J. Cyclic Nucleotide Res. 7:27-35 (1981)). The level of cAMP in an unknown extract was determined by extrapolation from a standard graph. A linear relationship between the cAMP level in the extracted samples and fluorescence detection was observed. […] However, this increase may not be a specific effect. Although adenosine contamination in the tested AP4 A agents was not detected, it is possible that either cellular adenosine nucleotide metabolic products or contaminated adenosine in the tested agents may be responsible for the elevated cAMP level.

[10] = in words, cited from earlier work; for side effects / bleeding risk: clinical

For `CNc1ccc2oc(C[C@H]3O[C@@]4(CC[C@H]3C)O[C@H]([C@H](C)C(=O)c3ccc[nH]3)[C@H](C)C[C@H]4C)nc2c1C(=O)O` [A23187], the “fluorescence intensity (FI), peak” value ([1]; 2 μM A23187, positive control) was 530.

With `Nc1ncnc2c1ncn2[C@@H]1O[C@H](COP(=O)(O)OP(=O)(O)O)[C@@H](O)[C@H]1O` [ADP, adenosine diphosphate] the “fluorescence intensity (FI), peak” value ([1]; 6.7 μM ADP, no agent) was 158.

In the case of `Nc1ncnc2c1ncn2[C@@H]1O[C@H](COP(=O)(O)OP(=O)(O)OP(=O)(O)OC[C@H]2O[C@@H](n3cnc4c(N)ncnc43)[C@H](O)[C@@H]2O)[C@@H](O)[C@H]1O` [AP3 A, diadenosine 5', 5'"-p^1, p^3 -triphosphate], the “degradation products in plasma” value [2] is listed as “hydrolyzed in plasma to AMP (adenosine monophosphate) and ADP (adenosine diphosphate)” and the “effect on platelet aggregation” value ([3]; AP3 A, in words) is listed as “gradual aggregation of platelets”.

In the case of `Nc1ncnc2c1ncn2[C@@H]1O[C@H](COP(=O)(O)OP(=O)(O)OP(=O)(O)OP(=O)(O)OC[C@H]2O[C@@H](n3cnc4c(N)ncnc43)[C@H](O)[C@@H]2O)[C@@H](O)[C@H]1O` [AP4 A, diadenosine 5', 5'"-P^1,P^4 -tetraphosphate], the “AP4 A degraded in plasma” value ([2]; ^32 P-labeled, normal plasma, ten minutes, 37° C., 10 min) is given as 90%, the “degradation products in plasma” value [2] is given as “degraded to AMP and ATP (adenosine triphosphate)” and the “effect on ADP-induced platelet aggregation on administration to a mammal” value [4] is given as “inhibit markedly ADP-induced platelet aggregation”. The “effect on thrombus formation on administration to a mammal” value [4] was “inhibit thrombus formation”, the “half-life in rabbit blood” value ([5]; in vivo and ex vivo) was “short half-life” and the “ex vivo decay compared to in vivo clearance” value ([5]; rabbit blood) was “significantly longer”. For the same molecule, the “dispersion of aggregated platelets” value ([3]; even when aggregation has progressed to 60% completion) was “immediate dispersion of aggregated platelets” and the “effect on ADP-induced platelet aggregation” value ([3]; in vitro, in words) was “competitive inhibitor; also recorded: competitively inhibits”.

In the case of `Nc1ncnc2c1ncn2[C@@H]1O[C@H](COP(=O)(O)OP(=O)(O)C(F)P(=O)(O)OP(=O)(O)OC[C@H]2O[C@@H](n3cnc4c(N)ncnc43)[C@H](O)[C@@H]2O)[C@@H](O)[C@H]1O` (some centres unmarked) [AppCHFppA], the ID10 [6] is listed as 4 µM.

For `Nc1ncnc2c1ncn2[C@H]1C[C@H](O)[C@@H](COP(=O)(O)OP(=O)(O)C(Cl)P(=O)(O)OP(=O)(O)OC[C@H]2O[C@@H](n3cnc4c(N)ncnc43)C[C@@H]2O)O1` (some centres unmarked) [CHCl-dAP4 dA], the IC50 ([7]; read-out: IC50) was > 100 µM.

With `C=C[C@@]1(C)CC(=O)[C@]2(O)[C@@]3(C)[C@@H](O)CCC(C)(C)[C@@H]3[C@H](O)[C@H](OC(C)=O)[C@@]2(C)O1` [Forskolin] the “effect on platelet cAMP” value [8] was “marked increase” and the “platelet cAMP level” value [9] was 124.4 nM.

Work on `Nc1ncnc2c1ncn2[C@H]1C[C@H](O)[C@@H](COP(O)(=S)OP(=O)(O)C(Cl)P(=O)(O)OP(O)(=S)OC[C@H]2O[C@@H](n3cnc4c(N)ncnc43)C[C@@H]2O)O1` (some centres unmarked) [Thio-CHCl-dAP4 dA] yielded an IC50 [7] of 9.22 µM.

For `CC(=O)Oc1ccccc1C(=O)O` [aspirin], the clinical effectiveness [10] is listed as “useful but limited effectiveness”.

In the case of `Clc1ccccc1CN1CCc2sccc2C1` [ticlopidine], the “side effects / bleeding risk” value [10] is listed as “substantial side effects”.

For “ReoPro: newer drugs, such as ReoPro (7E3)”, the “side effects / bleeding risk” value [10] is listed as “increased risk of major bleeding”.

Source: patent US5681823A, “P^1, P^4 -dithio-P^2 -P^3 -monochloromethylene 5', 5'"-diadenosine P^1, P^4 -tetraphosphate as antithrombotic agent” (PRP Inc., priority 1996, dated 1997)
